Columns and labels:
isovaleric acid [1] = assay: Malodor Reduction Test (cross-adaptation, Labeled Magnitude Scale); format: in vivo; conditions: Homo sapiens, inhaled or nasal; 1% (v/v) test substance in diethylphthalate sniffed before 56 ppm aqueous isovaleric acid; perceived intensity on LMS
Protocol: a) Malodor Reduction Test
Each subject's sense of smell was tested using a smell identification test and an isovaleric acid threshold test. To pass the smell ID test the subject had to correctly identify the aromas of peach, spearmint, cinnamon, lime, pineapple and clove. To pass the isovaleric acid threshold test subjects had to detect the odor of isovaleric acid in a one part-per-million (1 ppm weight/volume) aqueous isovaleric acid solution. This is above the 0.12 ppm threshold for a person with a normal sense of smell and below the 5.0 ppm threshold for a person with a specific anosmia to isovaleric acid (Amoore 1977). The use of an odor ID and a threshold test to identify subjects with a normal sense of smell is standard practice, (Cain, Gent et al. 1983).
The target malodor, isovaleric acid, was presented to the subject in a 60 mL, wide mouth amber, screw cap jar. The concentration of isovaleric acid in water that gave an odor intensity of strong or higher on the Labeled Magnitude Scale was 56 parts-per-million (weight/volume). Five milliliters of a 1% (v/v) solution of the test substance in diethylphthalate (DEP) presented in a 20 ml glass vial were used to evaluate the blocker candidate. The labeled the Labeled Magnitude Scale (LMS, FIG. 1) was developed for the quantitative measurement of taste, irritation and odor intensities (Green, Shaffer et al. 1993; Green, Dalton et al. 1996).
Evaluation of a sample for malodor blocking was as follows: a) The subject sniffed the isovaleric acid (target) with both nostrils and scored its intensity using the Labeled Magnitude Scale (LMS), b) The subject waited one minute, c) the subject sniffed the candidate compound twice with the left and then twice with the right nostril, d) the subject sniffed the isovaleric acid target sample within 20 seconds with both nostrils and scored its odor using the LMS, and e) the subject waited for two minutes before proceeding to the next test substance.
The percent malodor reduction (% MOR) was calculated using the following formula:
% MOR=[1−(IVAInt after CA/IVAINT before CA)]×100 where: IVA isovaleric acid
The ratio in this equation goes from zero (complete blocking) to one (no blocking). The % malodor reduction moves in the opposite direction and goes from 100% for complete blocking to 0% for no blocking.
Tables 1, 2, and 3 present the percent malodor reduction for some low molecular weight acetals, alcohols and esters respectively. In each of these tables the standard error of the mean is the standard deviation of the mean divided by the square root of the number of subjects used for the evaluation.

isovaleric acid [2] = assay: Deodorant stick containing 1% malodor reduction compound, sniff test; format: in vivo, human; conditions: compound at 1% by weight of deodorant stick; stick sniffed twice before 56 ppm aqueous isovaleric acid
Source text: A conventional deodorant stick composition, for example one with the following composition:
is modified by the addition of compound having a malodor reduction value of 80% or more as measured by the malodor reduction test presented in Example 1 in an amount such that it accounts for 1% by weight of the deodorant stick. […] Examples of effective compounds are: 2-Isobutyl-[1,3]dioxane, 2-Isobutyl-4,5-dimethyl-[1,3]dioxolane, 2-Isobutyl-4-methyl-[1,3]dioxane, 2-Isobutyl-4-methyl-[1,3]dioxolane, 1,1-Dimethoxy-3-methyl-butane, 2-lsobutyl-[1,3]dioxolane, 2-(2-Methyl-cyclopropyl)-[1,3]dioxolane, 2-Isobutyl-5-methyl-[1,3]dioxane, 2-Methylcyclopropane methanol, Ethyl isovalerate, Methyl isovalerate, 2-Methyl-cyclopropanecarboxylic acid methyl ester, n-Propyl isovalerate, and 2-Methyl-cyclopropanecarboxylic acid ethyl ester.

Row | SMILES | inhibition in vivo at 1 % v/v (isovaleric acid [1]) | block of the perception of isovaleric acid by deodorant stick (isovaleric acid [2])
1 | CCOC(CC(C)C)OCC [1,1-Diethoxy-3-methyl-butane, 1,1-Diethoxy-3-methyl-butane] | 78% | 
2 | COC(CC(C)C)OC [1,1-Dimethoxy-3-methyl-butane, 1,1-Dimethoxy-3-methyl-butane] | 87% | completely block
3 | CC1(CCO)CC1 [2-(1-Methyl-cyclopropyl)-ethanol, 2-(1-Methyl-cyclopropyl)-ethanol] | 72% | 
4 | CC1CC1C1OCCO1 (stereo not drawn) [2-(2-Methyl-cyclopropyl)-[1,3]dioxolane, 2-(2-Methyl-cyclopropyl)-[1,3]dioxolane] | 85% | completely block
5 | CC1CC1CCO (stereo not drawn) [2-(2-Methyl-cyclopropyl)-ethanol, 2-(2-Methyl-cyclopropyl)-ethanol] | 77% | 
6 | OCCC1CC1 [2-Cyclopropylethanol] | 74% | 
7 | CC(C)CC1OC(C)C(C)O1 (stereo not drawn) [2-Isobutyl-4,5-dimethyl-[1,3]dioxolane, 2-Isobutyl-4,5-dimethyl-[1,3]dioxolane] | 89% | completely block
8 | CC(C)CC1OCCC(C)O1 (stereo not drawn) [2-Isobutyl-4-methyl-[1,3]dioxane, 2-Isobutyl-4-methyl-[1,3]dioxane] | 92% | completely block
9 | CC(C)CC1OCC(C)O1 (stereo not drawn) [2-Isobutyl-4-methyl-[1,3]dioxolane, 2-Isobutyl-4-methyl-[1,3]dioxolane] | 89% | completely block
10 | CC(C)CC1OCC(C)CO1 (stereo not drawn) [2-Isobutyl-5-methyl-[1,3]dioxane, 2-Isobutyl-5-methyl-[1,3]dioxane] | 80% | completely block
11 | CC(C)CC1OCCCO1 [2-Isobutyl-[1,3]dioxane] | 97% | completely block
12 | CC(C)CC1OCCO1 [2-Isobutyl-[1,3]dioxolane] | 87% | completely block
13 | CCOC(=O)C1CC1C (stereo not drawn) [2-Methyl-cyclopropanecarboxylic acid ethyl ester] | 81% | completely block
14 | CC(C)OC(=O)C1CC1C (stereo not drawn) [2-Methyl-cyclopropanecarboxylic acid isopropyl ester] | 68% | 
15 | COC(=O)C1CC1C (stereo not drawn) [2-Methyl-cyclopropanecarboxylic acid methyl ester] | 89% | completely block
16 | CC1CC1CO (stereo not drawn) [2-Methylcyclopropane methanol] | 85% | completely block
17 | CCC1COC(CC(C)C)O1 (stereo not drawn) [4-Ethyl-2-isobutyl-[1,3]dioxolane, 4-Ethyl-2-isobutyl-[1,3]dioxolane] | 78% | 
18 | CCOC(=O)CC(C)C [Ethyl isovalerate] | 94% | completely block
19 | CC(C)CCO [Isoamyl Alcohol] | 73% | 
20 | CC(=O)OCCC(C)C [Isoamylacetate] | 67% | 
21 | CC(C)CC(=O)OC(C)C [Isopropyl isovalerate] | 74% | 
22 | COC(=O)CC(C)C [Methyl isovalerate] |  | completely block
23 | CCCOC(=O)CC(C)C [n-Propyl isovalerate] | 83% | completely block

Reference: US20030089885A1, “Use of low molecular weight acetal, alcohol, acylated alcohol and ester compounds to block or reduce odor of carboxylic acids” (Senomyx, Inc., priority 2001, published 2003)
